# Reference: patent US9353090B2, “Heterocyclic carboxylic acids as activators of soluble guanylate cyclase” (Boehringer Ingelheim International GmbH, priority 2014, dated 2016)
# Key:
# [1] = target: human soluble guanylate cyclase alpha 1 and beta 1 subunits (sGC) (Homo sapiens (Human), UniProt Q02108+Q02153); assay: sGC cellular activator assay (cGMP, HTRF), in the presence and absence of 50% human serum; type: cell-based; conditions: CHO cells stably expressing human sGC alpha 1/beta 1, preincubated with 40 microM ODQ; cGMP by HTRF; Table 2 does not state whether with or without 50% human serum
# How it was run: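 First, CHO-sGC (human α1β1) cells get 1 h ODQ at 40 microM with IBMX and 0.1% BSA. Finally, cGMP is quantified by HTRF and EC50 computed.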
# [2] = Human liver microsome (HLM) metabolic stability assay; type: in vitro ADME; conditions: human liver microsomes
# How it was run: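 Remaining parent measured by LC/MS/MS (ESI, MRM) at 5, 15, 30 and 60 min relative to 0 min. Incubation: 1 uM compound, HLMs, NADPH-started, 37° C., 60 min total, single replicate. Slope of ln(% remaining) gives t1/2 = 0.693/slope, then CLint, CLh and % Qh.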
# physchem = conditions: kinetic from dmso stock
# [3] = pH 2.2, aqueous buffer, Solubility (pH 2.2)
# [4] = pH 4.5, aqueous buffer, Solubility (pH 4.5)
# [5] = pH 6.8, aqueous buffer, Solubility (pH 6.8)
# human soluble guanylate cyclase alpha 1 and beta 1 subunits (sGC), sequence (Q02108 whole entry partner): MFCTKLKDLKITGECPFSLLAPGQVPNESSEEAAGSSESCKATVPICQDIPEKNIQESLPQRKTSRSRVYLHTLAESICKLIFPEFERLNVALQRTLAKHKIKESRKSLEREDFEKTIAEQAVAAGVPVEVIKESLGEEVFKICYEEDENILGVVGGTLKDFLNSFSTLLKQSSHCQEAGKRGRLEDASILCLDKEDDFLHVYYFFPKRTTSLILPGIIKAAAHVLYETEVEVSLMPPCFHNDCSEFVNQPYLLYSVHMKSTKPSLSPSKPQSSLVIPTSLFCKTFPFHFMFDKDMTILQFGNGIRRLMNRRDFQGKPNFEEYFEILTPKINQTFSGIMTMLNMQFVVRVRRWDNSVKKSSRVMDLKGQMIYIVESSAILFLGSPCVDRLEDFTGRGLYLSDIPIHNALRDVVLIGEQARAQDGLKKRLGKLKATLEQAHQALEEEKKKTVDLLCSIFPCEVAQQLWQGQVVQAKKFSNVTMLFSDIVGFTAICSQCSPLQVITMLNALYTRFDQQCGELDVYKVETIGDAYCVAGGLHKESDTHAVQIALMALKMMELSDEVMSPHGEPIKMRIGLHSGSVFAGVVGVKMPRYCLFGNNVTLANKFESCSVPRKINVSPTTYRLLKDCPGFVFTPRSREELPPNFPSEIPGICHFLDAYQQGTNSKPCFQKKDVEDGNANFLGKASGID
# human soluble guanylate cyclase alpha 1 and beta 1 subunits (sGC), sequence (Q02153 whole entry): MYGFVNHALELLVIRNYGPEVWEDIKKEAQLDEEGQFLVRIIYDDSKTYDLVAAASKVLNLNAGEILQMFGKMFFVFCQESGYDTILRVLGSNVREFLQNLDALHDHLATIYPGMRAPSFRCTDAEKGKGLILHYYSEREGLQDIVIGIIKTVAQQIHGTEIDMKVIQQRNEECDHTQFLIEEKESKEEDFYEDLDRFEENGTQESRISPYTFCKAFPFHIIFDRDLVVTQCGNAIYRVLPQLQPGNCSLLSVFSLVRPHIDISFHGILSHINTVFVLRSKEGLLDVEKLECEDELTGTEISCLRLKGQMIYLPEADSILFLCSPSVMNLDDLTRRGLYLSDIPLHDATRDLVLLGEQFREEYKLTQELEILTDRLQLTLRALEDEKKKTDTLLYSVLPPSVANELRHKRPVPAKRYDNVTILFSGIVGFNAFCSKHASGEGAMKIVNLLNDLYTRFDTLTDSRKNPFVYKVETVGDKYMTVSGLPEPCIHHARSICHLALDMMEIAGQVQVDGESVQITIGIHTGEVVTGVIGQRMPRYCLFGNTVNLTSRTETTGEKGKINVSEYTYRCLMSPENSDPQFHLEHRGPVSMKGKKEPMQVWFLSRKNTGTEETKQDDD
Structure (SMILES),EC50 [1] [nM],"Metabolic stability (Qh %), % hepatic blood flow [2] [%]",solubility at 24 h (physchem; [3]) [µg/mL],solubility at 24 h (physchem; [4]) [µg/mL],solubility at 24 h (physchem; [5]) [µg/mL]
COC[C@H]1N(c2nc(-c3cc(C)ccc3OCc3ccc4c(c3)CCN(C3CCOCC3)C4)cs2)C[C@@H]2C[C@@]21C(=O)O [Compound 163],345,<24,110,77,65
COC[C@H]1N(c2nc(-c3cc(C)ccc3OCc3ccc4c(c3C)CCN(C3CCOCC3)C4)cs2)C[C@@H]2C[C@@]21C(=O)O [Compound 164],108,<24,120,75,59
CO[C@H]1CN(c2nc(-c3cccc(C)c3OCc3ccc4c(c3C)CCN(C3CCOCC3)C4)cs2)CC[C@H]1C(=O)O [Compound 165],12,<24,120,86,77
CO[C@H]1CN(c2nc(-c3cccc(C)c3OCc3ccc4c(c3C)CCN(C3COC3)C4)cs2)CC[C@H]1C(=O)O [Compound 166],17,<24,110,74,82
CO[C@H]1CN(c2nc(-c3cccc(C)c3OCc3cc(C)c4c(c3)CCN(C3CCOCC3)C4)cs2)CC[C@H]1C(=O)O [Compound 167],10,<24,110,84,82
CO[C@H]1CN(c2nc(-c3cccc(C)c3OCc3cc(C)c4c(c3)CCN(CC3COCCO3)C4)cs2)CC[C@H]1C(=O)O (some centres unmarked) [Compound 168],53,<24,130,87,81
CCc1cc(COc2c(C)cccc2-c2csc(N3CC[C@@H](C(=O)O)[C@@H](OC)C3)n2)cc2c1CN(C1CCOCC1)CC2 [Compound 170],5,<24,130,90,79
COc1cc(COc2c(C)cccc2-c2csc(N3CC[C@@H](C(=O)O)[C@@H](OC)C3)n2)cc2c1CN(C1CCOCC1)CC2 [Compound 171],10,<24,140,100,99
CO[C@H]1CN(c2nc(-c3cccc(C)c3OCc3cc(F)c4c(c3)CCN(C3CCOCC3)C4)cs2)CC[C@H]1C(=O)O [Compound 172],7,<24,130,98,85
CO[C@@H]1CN(c2nc(-c3cccc(C)c3OCc3ccc4c(c3C)CCN(C3CCOCC3)C4)cs2)CC[C@@H]1C(=O)O [Compound 173],21,<24,120,71,75
CO[C@@H]1CN(c2nc(-c3cccc(C)c3OCc3ccc4c(c3C)CCN(C3COC3)C4)cs2)CC[C@@H]1C(=O)O [Compound 174],44,<24,120,79,83
CO[C@@H]1CN(c2nc(-c3cccc(C)c3OCc3cc(C)c4c(c3)CCN(CC3COCCO3)C4)cs2)CC[C@@H]1C(=O)O (some centres unmarked) [Compound 175],155,<24,140,100,95
COc1cc(COc2c(C)cccc2-c2csc(N3CC[C@H](C(=O)O)[C@H](OC)C3)n2)cc2c1CN(C1CCOCC1)CC2 [Compound 177],47,<24,140,100,96
CO[C@H]1CN(c2nc(-c3cc(C)ccc3OCc3ccc4c(c3C)CCN(C3CCOCC3)C4)cs2)CC[C@H]1C(=O)O [Compound 178],14,<24,110,72,5.1
CO[C@H]1CN(c2nc(-c3cc(C)ccc3OCc3cc(C)c4c(c3)CCN(C3CCOCC3)C4)cs2)CC[C@H]1C(=O)O [Compound 180],46,<24,120,4.3,0.73
CO[C@H]1CN(c2nc(-c3cc(C)ccc3OCc3cc(C)c4c(c3C)CCN(C3CCOCC3)C4)cs2)CC[C@H]1C(=O)O [Compound 181],23,<24,120,53,5
CO[C@H]1CN(c2nc(-c3cc(C)ccc3OCc3ccc4c(c3C)CCN(C3CCOCC3)CC4)cs2)CC[C@H]1C(=O)O [Compound 182],26,<24,120,61,55
Cc1c(COc2ccccc2-c2ccnc(N3CC[C@@]4(C(=O)O)C[C@H]4C3)n2)ccc2c1CCN(C1CCOCC1)C2 [Compound 185],21,33,100,43,42
Cc1c(COc2ccccc2-c2ccnc(N3C[C@@H]4C[C@]4(C(=O)O)C3)n2)ccc2c1CCN(C1CCOCC1)C2 [Compound 188],150,<24,110,50,54
Cc1cccc(-c2ccnc(N3C[C@@H]4C[C@]4(C(=O)O)C3)n2)c1OCc1ccc2c(c1C)CCN(C1CCOCC1)C2 [Compound 189],43,<24,110,66,66
Cc1cc(COc2c(C)cccc2-c2ccnc(N3C[C@@H]4C[C@]4(C(=O)O)C3)n2)cc2c1CN(C1CCOCC1)CC2 [Compound 190],17,<24,99,71,74
"Cc1ccc(OCc2ccc3c(c2)CCN(C2CCOCC2)C3=O)c(-c2csc(N3CC[C@@]4(C(=O)O)C[C@H]4C3)n2)c1 [Compound 192, (1R,6S)-3-(4-{5-Methyl-2-[1-oxo-2-(tetrahydro-pyran-4-yl)-1,2,3,4-tetrahydro-isoquinolin-6-ylmethoxy]-phenyl}-thiazol-2-yl)-3-aza-bicyclo[4.1.0]heptane-6-carboxylic acid]",29,<24,48,< 0.1,9.2
Cc1ccc(OCc2cnc3c(c2)CCN(C2CCOCC2)C3)c(-c2csc(N3CC[C@@]4(C(=O)O)C[C@H]4C3)n2)c1 [Compound 194],63,<24,140,70,57
CO[C@@H]1CN(c2cccc(-c3cccc(C)c3OCc3ccc4c(c3C)CCN(C3COC3)CC4)n2)CC[C@@H]1C(=O)O [Compound 196],3,24,117,114,107
CO[C@H]1CN(c2cccc(-c3cccc(C)c3OCc3ccc4c(c3C)CCN(C3CCOCC3)CC4)n2)CC[C@H]1C(=O)O [Compound 197],9,47,110,73,53
